Laboratory results as given in PubChem BioAssay AID2060609 (Molecular Pharmacology Branch, DTP, NCI, 2025).
Where “and” joins values, the source holds several entries; their conditions need not be identical. Equal values may be shown once.

System: 855422-203-R-J1-PDC complex spheroids, viability
Assay: Anticancer human tumor 855422-203-R-J1-PDC patient-derived bladder carcinoma cell line growth inhibition [CLK]
Details: for viability, T/C: stronger effect = lower value
Summary of the method: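 Patient-derived tumor cells grown as complex spheroids with HUVEC endothelial cells and mesenchymal stem cells, treated with drug combinations. Concentrations descend in half-log steps from near clinical Cmax, or from 10 microM if Cmax unknown.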

[1] = curve of first compound, second compound 0.0316 µM
[2] = curve of first compound, second compound 0.1 µM
[3] = curve of first compound, second compound 0.316 µM
[4] = curve of first compound, second compound 1 µM
[5] = curve of first compound, second compound 3.16 µM
[6] = curve of first compound, second compound 10 µM
[7] = second compound 0.0316 µM, first compound 0.0316 µM
[8] = second compound 0.0316 µM, first compound 0.1 µM
[9] = second compound 0.0316 µM, first compound 0.316 µM
[10] = second compound 0.0316 µM, first compound 1 µM
[11] = second compound 0.1 µM, first compound 0.0316 µM
[12] = second compound 0.1 µM, first compound 0.1 µM
[13] = second compound 0.1 µM, first compound 0.316 µM
[14] = second compound 0.1 µM, first compound 1 µM
[15] = second compound 0.316 µM, first compound 0.0316 µM
[16] = second compound 0.316 µM, first compound 0.1 µM
[17] = second compound 0.316 µM, first compound 0.316 µM
[18] = second compound 0.316 µM, first compound 1 µM
[19] = second compound 1 µM, first compound 0.0316 µM
[20] = second compound 1 µM, first compound 0.1 µM
[21] = second compound 1 µM, first compound 0.316 µM
[22] = second compound 1 µM, first compound 1 µM
[23] = second compound 3.16 µM, first compound 0.0316 µM
[24] = second compound 3.16 µM, first compound 0.1 µM
[25] = second compound 3.16 µM, first compound 0.316 µM
[26] = second compound 3.16 µM, first compound 1 µM
[27] = second compound 10 µM, first compound 0.0316 µM
[28] = second compound 10 µM, first compound 0.1 µM
[29] = second compound 10 µM, first compound 0.316 µM
[30] = second compound 10 µM, first compound 1 µM
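Further: spheroids exposed to drugs for seven days before readout.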
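Wherever viability, T/C is given: 100% = DMSO vehicle control wells.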

Question: For COc1cccc2c1C(=O)c1c(O)c3c(c(O)c1C2=O)CC(O)(C(=O)CO)CC3OC1CC(N)C(O)C(C)O1 (stereo unspecified) + CNC(=O)c1ccc(Nc2nc(OC3CCCC3)c3c(-c4ccc5nc(C)oc5c4)c[nH]c3n2)c(OC)c1, which IC50 [1] is on record?
Answer: < 31.6 nM

Question: What about the IC50 [2] of the same compound?
Answer: < 31.6 nM

Question: And the IC50 [3]?
Answer: < 31.6 nM

Question: And the IC50 [4]?
Answer: < 31.6 nM

Question: And the IC50 [5]?
Answer: < 31.6 nM

Question: And the IC50 [6]?
Answer: < 31.6 nM

Question: And the viability, T/C [7]?
Answer: 10.3%

Question: What about the viability, T/C [8] of the same compound?
Answer: 2.45%

Question: And the viability, T/C [9]?
Answer: 0.72%

Question: What about the viability, T/C [10] of the same compound?
Answer: 0.22%

Question: And the viability, T/C (second compound 0.0316 µM, first compound 3.16 µM)?
Answer: 0.45%

Question: And the viability, T/C (second compound 0.0316 µM, first compound 10 µM)?
Answer: 0.6%

Question: And the viability, T/C [11]?
Answer: 11%

Question: And the viability, T/C [12]?
Answer: 1.62%

Question: And the viability, T/C [13]?
Answer: 1.02%

Question: What about the viability, T/C [14] of the same compound?
Answer: 0.3%

Question: What about the viability, T/C (second compound 0.1 µM, first compound 3.16 µM) of the same compound?
Answer: 0.4%

Question: And the viability, T/C (second compound 0.1 µM, first compound 10 µM)?
Answer: 0.51%

Question: What about the viability, T/C [15] of the same compound?
Answer: 9.64%

Question: What about the viability, T/C [16] of the same compound?
Answer: 1.3%

Question: And the viability, T/C [17]?
Answer: 0.46%

Question: What about the viability, T/C [18] of the same compound?
Answer: 0.22%

Question: And the viability, T/C (second compound 0.316 µM, first compound 3.16 µM)?
Answer: 0.45%

Question: And the viability, T/C (second compound 0.316 µM, first compound 10 µM)?
Answer: 0.55%

Question: And the viability, T/C [19]?
Answer: 7.4%

Question: What about the viability, T/C [20] of the same compound?
Answer: 1.13%

Question: What about the viability, T/C [21] of the same compound?
Answer: 0.24%

Question: And the viability, T/C [22]?
Answer: 0.56%

Question: And the viability, T/C (second compound 1 µM, first compound 3.16 µM)?
Answer: 0.58%

Question: And the viability, T/C (second compound 1 µM, first compound 10 µM)?
Answer: 0.82%

Question: What about the viability, T/C [23] of the same compound?
Answer: 9.03%

Question: And the viability, T/C [24]?
Answer: 0.94%

Question: What about the viability, T/C [25] of the same compound?
Answer: 0.2%

Question: What about the viability, T/C [26] of the same compound?
Answer: 0.62%

Question: And the viability, T/C (second compound 3.16 µM, first compound 3.16 µM)?
Answer: 0.98%

Question: And the viability, T/C (second compound 3.16 µM, first compound 10 µM)?
Answer: 0.75%

Question: And the viability, T/C [27]?
Answer: 6.1%

Question: What about the viability, T/C [28] of the same compound?
Answer: 0.68%

Question: And the viability, T/C [29]?
Answer: 0.35%

Question: And the viability, T/C [30]?
Answer: 0.72%

Question: What about the viability, T/C (second compound 10 µM, first compound 3.16 µM) of the same compound?
Answer: 0.63%

Question: What about the viability, T/C (second compound 10 µM, first compound 10 µM) of the same compound?
Answer: 1.3%

Question: Which results are given for CC1(C)CCC(CN2CCN(c3ccc(C(=O)NS(=O)(=O)c4ccc(NCC5CCOCC5)c([N+](=O)[O-])c4)c(Oc4cnc5[nH]ccc5c4)c3)CC2)=C(c2ccc(Cl)cc2)C1?
Answer: viability, T/C (compound 0.0316 µM): 107% and 106%; viability, T/C (compound 0.1 µM): 90.2% and 119%; viability, T/C (compound 0.316 µM): 117% and 124%; viability, T/C (compound 1 µM): 103% and 118%; viability, T/C (compound 3.16 µM): 159% and 150%; viability, T/C (compound 10 µM): 1.83% and 3.19%; IC50 (curve of compound): 6140 nM and 6390 nM

Question: With CCN1CCN(Cc2ccc(Nc3ncc(F)c(-c4cc(F)c5nc(C)n(C(C)C)c5c4)n3)nc2)CC1 + CNC(=O)c1ccc(Nc2nc(OC3CCCC3)c3c(-c4ccc5nc(C)oc5c4)c[nH]c3n2)c(OC)c1 as the compound, how does the IC50 [1] read?
Answer: > 1000 nM

Question: What about the IC50 [2] of the same compound?
Answer: 6.4 nM

Question: What about the IC50 [3] of the same compound?
Answer: < 3.16 nM

Question: What about the IC50 [4] of the same compound?
Answer: < 3.16 nM

Question: What about the IC50 [5] of the same compound?
Answer: < 3.16 nM

Question: And the IC50 [6]?
Answer: < 3.16 nM

Question: What about the viability, T/C (second compound 0.0316 µM, first compound 0.00316 µM) of the same compound?
Answer: 88%

Question: And the viability, T/C (second compound 0.0316 µM, first compound 0.01 µM)?
Answer: 90.2%

Question: And the viability, T/C [7]?
Answer: 74.8%

Question: What about the viability, T/C [8] of the same compound?
Answer: 56.8%

Question: What about the viability, T/C [9] of the same compound?
Answer: 56.4%

Question: What about the viability, T/C [10] of the same compound?
Answer: 46.2%

Question: And the viability, T/C (second compound 0.1 µM, first compound 0.00316 µM)?
Answer: 59.3%

Question: And the viability, T/C (second compound 0.1 µM, first compound 0.01 µM)?
Answer: 48%

Question: And the viability, T/C [11]?
Answer: 31.6%

Question: What about the viability, T/C [12] of the same compound?
Answer: 33.7%

Question: What about the viability, T/C [13] of the same compound?
Answer: 31.8%

Question: And the viability, T/C [14]?
Answer: 37.3%

Question: What about the viability, T/C (second compound 0.316 µM, first compound 0.00316 µM) of the same compound?
Answer: 23.3%

Question: What about the viability, T/C (second compound 0.316 µM, first compound 0.01 µM) of the same compound?
Answer: 27.7%

Question: And the viability, T/C [15]?
Answer: 25.9%

Question: What about the viability, T/C [16] of the same compound?
Answer: 20.9%

Question: What about the viability, T/C [17] of the same compound?
Answer: 28.7%

Question: What about the viability, T/C [18] of the same compound?
Answer: 30.9%

Question: And the viability, T/C (second compound 1 µM, first compound 0.00316 µM)?
Answer: 19.8%

Question: And the viability, T/C (second compound 1 µM, first compound 0.01 µM)?
Answer: 23.9%

Question: And the viability, T/C [19]?
Answer: 18%

Question: And the viability, T/C [20]?
Answer: 22.9%

Question: What about the viability, T/C [21] of the same compound?
Answer: 22.2%

Question: And the viability, T/C [22]?
Answer: 23.9%

Question: And the viability, T/C (second compound 3.16 µM, first compound 0.00316 µM)?
Answer: 18.2%

Question: What about the viability, T/C (second compound 3.16 µM, first compound 0.01 µM) of the same compound?
Answer: 23.4%

Question: What about the viability, T/C [23] of the same compound?
Answer: 19.8%

Question: What about the viability, T/C [24] of the same compound?
Answer: 18.6%

Question: What about the viability, T/C [25] of the same compound?
Answer: 26.9%

Question: What about the viability, T/C [26] of the same compound?
Answer: 22.7%

Question: And the viability, T/C (second compound 10 µM, first compound 0.00316 µM)?
Answer: 18.2%

Question: What about the viability, T/C (second compound 10 µM, first compound 0.01 µM) of the same compound?
Answer: 22.1%

Question: What about the viability, T/C [27] of the same compound?
Answer: 22.3%

Question: And the viability, T/C [28]?
Answer: 24%

Question: And the viability, T/C [29]?
Answer: 18.5%

Question: What about the viability, T/C [30] of the same compound?
Answer: 20%
